From ChEMBL document CHEMBL1201862, “PubChem BioAssay data set” (2004)
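These data come from cells grown in 96-well plates and exposed to compound for 48 hours at five concentrations. Here, GI50 denotes the concentration required for 50% inhibition of growth.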 Active and inactive are the calls of the source. Rule as the data show it: active = GI50 up to about 1.1 µM and inactive = higher.

Key:
Test in all cases: NCI tumour cell line growth inhibition, 48 h
DLD-1 = system: DLD-1
DMS-114 = system: DMS-114
DMS-273 = system: DMS-273
HCT-116 = system: HCT-116
HOP-62 = system: HOP-62
LOX IMVI = system: LOX IMVI
M14 = system: M14
Malme-3M = system: Malme-3M
NCI-H226 = system: NCI-H226
NCI-H23 = system: NCI-H23
RPMI-8226 = system: RPMI-8226
RXF 393 = system: RXF 393
SK-MEL-2 = system: SK-MEL-2
SNB-75 = system: SNB-75
UACC-62 = system: UACC-62
XF498 = system: XF498

Measured: GI50

NNC(=O)N/N=C1\CNC(=O)C(=O)C1c1nc2ccccc2s1 (stereo not drawn)
inactive: DLD-1 > 100 µM | DMS-114 > 100 µM | DMS-273 > 100 µM | HCT-116 > 100 µM | HOP-62 > 100 µM | LOX IMVI > 100 µM | M14 > 100 µM | Malme-3M > 100 µM | NCI-H226 > 100 µM | NCI-H23 > 100 µM | RPMI-8226 > 100 µM | RXF 393 > 100 µM | SK-MEL-2 > 100 µM | SNB-75 > 100 µM | UACC-62 > 100 µM | XF498 > 100 µM

COC(=O)C(=O)C(C(=O)C(=O)Nc1ccc([N+](=O)[O-])cc1)c1nc2ccccc2nc1O (stereo not drawn)
inactive: DLD-1 > 100 µM | DMS-114 > 100 µM | DMS-273 47.1 µM | HCT-116 > 100 µM | HOP-62 39.6 µM | LOX IMVI > 100 µM | M14 42.2 µM | Malme-3M > 100 µM | NCI-H226 > 100 µM | NCI-H23 > 100 µM | RPMI-8226 > 100 µM | RXF 393 > 100 µM | SK-MEL-2 > 100 µM | SNB-75 > 100 µM | UACC-62 19.6 µM | XF498 > 100 µM

OC1CN(OC/C=C/c2ccccc2)CC(O)C1O (stereo not drawn)
inactive: DLD-1 87.3 µM | DMS-114 > 100 µM | DMS-273 > 100 µM | HCT-116 > 100 µM | HOP-62 > 100 µM | LOX IMVI 46.1 µM | M14 > 100 µM | Malme-3M > 100 µM | NCI-H226 > 100 µM | NCI-H23 > 100 µM | RPMI-8226 44.3 µM | RXF 393 > 100 µM | SK-MEL-2 > 100 µM | SNB-75 > 100 µM | UACC-62 > 100 µM | XF498 > 100 µM
